Test results: BindingDB's records for doi:10.1007/s00044-013-0847-2 (n/a, 2013)

Key:
Cholinesterase = Cholinesterase (Homo sapiens, UniProt P06276); assay: Inhibition of BChE (unknown origin) using butyryl thiocholine iodide as substrate after 30 mins by Ellman's method
Acetylcholinesterase = Acetylcholinesterase (Homo sapiens, UniProt P22303); assay: Inhibition of AChE (unknown origin) using acetyl thiocholine iodide as substrate after 30 mins by Ellman's method
Sequence of Acetylcholinesterase (P22303 whole entry): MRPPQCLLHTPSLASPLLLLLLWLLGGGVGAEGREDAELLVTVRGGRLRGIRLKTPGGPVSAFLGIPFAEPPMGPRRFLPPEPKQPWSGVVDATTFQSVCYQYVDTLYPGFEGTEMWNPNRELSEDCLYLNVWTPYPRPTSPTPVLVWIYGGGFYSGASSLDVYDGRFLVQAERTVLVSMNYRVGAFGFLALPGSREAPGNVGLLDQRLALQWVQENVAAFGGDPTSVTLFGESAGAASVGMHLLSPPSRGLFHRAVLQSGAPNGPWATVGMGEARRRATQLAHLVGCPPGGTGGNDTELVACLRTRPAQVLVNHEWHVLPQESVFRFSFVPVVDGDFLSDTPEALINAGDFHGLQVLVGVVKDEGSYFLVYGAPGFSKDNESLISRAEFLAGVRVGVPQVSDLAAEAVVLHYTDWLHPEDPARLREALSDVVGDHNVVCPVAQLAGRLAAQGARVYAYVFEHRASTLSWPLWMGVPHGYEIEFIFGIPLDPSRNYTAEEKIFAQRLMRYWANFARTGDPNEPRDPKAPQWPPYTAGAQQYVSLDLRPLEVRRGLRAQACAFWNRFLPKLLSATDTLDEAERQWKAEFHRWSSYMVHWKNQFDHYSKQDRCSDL

Sequence of Cholinesterase (P06276 whole entry): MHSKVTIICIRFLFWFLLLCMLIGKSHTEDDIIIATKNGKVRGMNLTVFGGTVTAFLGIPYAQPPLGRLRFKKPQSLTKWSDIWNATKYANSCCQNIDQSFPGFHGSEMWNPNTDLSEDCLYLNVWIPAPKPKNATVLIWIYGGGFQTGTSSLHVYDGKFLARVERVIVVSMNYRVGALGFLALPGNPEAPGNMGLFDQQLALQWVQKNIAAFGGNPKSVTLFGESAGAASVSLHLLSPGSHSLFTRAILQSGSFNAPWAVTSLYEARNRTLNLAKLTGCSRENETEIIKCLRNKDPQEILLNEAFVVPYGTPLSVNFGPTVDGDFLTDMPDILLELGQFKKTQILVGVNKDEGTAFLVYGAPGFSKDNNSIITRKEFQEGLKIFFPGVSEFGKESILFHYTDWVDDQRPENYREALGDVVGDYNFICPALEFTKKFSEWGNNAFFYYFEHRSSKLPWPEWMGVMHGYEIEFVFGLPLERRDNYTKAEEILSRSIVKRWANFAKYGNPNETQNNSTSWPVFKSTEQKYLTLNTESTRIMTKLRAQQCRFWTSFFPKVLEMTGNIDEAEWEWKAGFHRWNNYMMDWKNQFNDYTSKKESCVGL

| Compound | IC50 (Cholinesterase) [µM] | IC50 (Acetylcholinesterase) [µM] |
| --- | --- | --- |
| O=C1NC(=S)NC(=O)C1=CNNC(=S)Nc1ccc(F)cc1 | 57.8 | 78.4 |
| Cc1cccc(Cl)c1NC(=S)NNC=C1C(=O)NC(=O)NC1=O | 8.81 |  |
| O=C1NC(=S)NC(=O)C1=CNNC(=S)Nc1ccc(Cl)cc1 | 75.4 | 121 |
| O=C1NC(=O)C(=CNNC(=S)Nc2cccc(C(F)(F)F)c2)C(=O)N1 | 136 | 40.7 |
| O=C(NNC=C1C(=O)NC(=S)NC1=O)Nc1ccccc1 | 3.31 | 74.2 |
| COc1ccc(NC(=S)NNC=C2C(=O)NC(=S)NC2=O)cc1 | 56.8 | 206 |
| N#Cc1ccc(NC(=S)NNC=C2C(=O)NC(=O)NC2=O)cc1 | 231 |  |
| O=C1NC(=S)NC(=O)C1=CNNC(=S)Nc1ccc(C(F)(F)F)cc1 | 8.1 | 99.4 |
| NC(=S)NNC=C1C(=O)NC(=O)NC1=O | 56.5 | 119 |
| O=C1NC(=S)NC(=O)C1=CNNC(=S)Nc1ccc(Br)cc1 | 68.4 | 79.2 |
| O=C1NC(=S)NC(=O)C1=CNNC(=S)Nc1ccccc1 | 57.1 | 115 |
| O=C1NC(=O)C(=CNNC(=O)Nc2ccccc2)C(=O)N1 | 38.5 |  |
| CC(=O)NC=C1C(=O)NC(=O)NC1=O | 116 | 90.9 |
